Source: the kinase profiling compilation of Christmann-Franck et al. (2016)
“And” between values parts separate entries of the source, which are not always exact repeats. Equal entries are not always repeated. Each block holds one compound with its values, some of them ahead of it.

Columns and labels:
Test in all cases: radiometric filter-binding kinase assay, Kinase HotSpot
Details in all cases: compound 0.5 µM; ATP 10 µM
ADRBK1 (human) = ADRBK1 (human) (UniProt P25098)
AKT1 (human) = AKT1 (human) (UniProt P31749)
Sequence of AKT1 (human) (P31749 whole entry, looked up): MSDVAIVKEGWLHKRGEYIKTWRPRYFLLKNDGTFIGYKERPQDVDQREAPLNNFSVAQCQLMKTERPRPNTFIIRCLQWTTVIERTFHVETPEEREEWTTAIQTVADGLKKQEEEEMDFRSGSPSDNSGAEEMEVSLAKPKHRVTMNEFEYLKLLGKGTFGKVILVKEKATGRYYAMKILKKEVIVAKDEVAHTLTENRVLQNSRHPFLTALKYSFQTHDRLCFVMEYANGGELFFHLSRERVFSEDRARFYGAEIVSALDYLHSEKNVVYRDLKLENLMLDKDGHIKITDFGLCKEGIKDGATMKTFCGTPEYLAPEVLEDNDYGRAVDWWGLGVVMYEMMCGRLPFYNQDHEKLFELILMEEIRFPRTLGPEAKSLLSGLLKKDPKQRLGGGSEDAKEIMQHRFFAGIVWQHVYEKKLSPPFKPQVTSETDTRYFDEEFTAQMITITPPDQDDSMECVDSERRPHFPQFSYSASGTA

BTK (human) = BTK (human) (UniProt Q06187)
CAMKK2 (human) = CAMKK2 (human) (UniProt Q96RR4)
CDK1 CCNB1 (human) = CDK1 CCNB1 (human) (UniProt P06493+P14635)
CDK2 CCNA2 (human) = CDK2 CCNA2 (human) (UniProt P24941+P20248)
CDK4 CCND1 (human) = CDK4 CCND1 (human) (UniProt P24385+P11802)
Sequence of CDK4 CCND1 (human) (P11802 whole entry, looked up): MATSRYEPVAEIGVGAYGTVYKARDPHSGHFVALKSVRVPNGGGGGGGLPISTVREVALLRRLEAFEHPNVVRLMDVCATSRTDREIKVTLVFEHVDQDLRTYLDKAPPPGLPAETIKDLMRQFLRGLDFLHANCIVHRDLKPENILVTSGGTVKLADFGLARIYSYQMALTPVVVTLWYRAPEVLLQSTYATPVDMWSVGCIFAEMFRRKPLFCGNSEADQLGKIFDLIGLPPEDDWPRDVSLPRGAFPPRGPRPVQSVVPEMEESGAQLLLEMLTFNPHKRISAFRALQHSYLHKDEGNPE
Sequence of CDK4 CCND1 (human) (P24385 whole entry, looked up): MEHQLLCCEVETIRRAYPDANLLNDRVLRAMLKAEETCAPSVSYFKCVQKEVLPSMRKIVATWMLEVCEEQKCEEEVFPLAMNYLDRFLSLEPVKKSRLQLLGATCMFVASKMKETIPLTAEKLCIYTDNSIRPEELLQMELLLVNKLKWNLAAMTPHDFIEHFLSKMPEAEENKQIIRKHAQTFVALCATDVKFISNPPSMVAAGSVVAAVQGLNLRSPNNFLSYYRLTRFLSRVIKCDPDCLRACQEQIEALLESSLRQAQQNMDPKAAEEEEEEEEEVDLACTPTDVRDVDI

CDK6 CCND1 (human) = CDK6 CCND1 (human) (UniProt Q00534+P24385)
Sequence of CDK6 CCND1 (human) (P24385 whole entry, looked up): as above
Sequence of CDK6 CCND1 (human) (Q00534 whole entry, looked up): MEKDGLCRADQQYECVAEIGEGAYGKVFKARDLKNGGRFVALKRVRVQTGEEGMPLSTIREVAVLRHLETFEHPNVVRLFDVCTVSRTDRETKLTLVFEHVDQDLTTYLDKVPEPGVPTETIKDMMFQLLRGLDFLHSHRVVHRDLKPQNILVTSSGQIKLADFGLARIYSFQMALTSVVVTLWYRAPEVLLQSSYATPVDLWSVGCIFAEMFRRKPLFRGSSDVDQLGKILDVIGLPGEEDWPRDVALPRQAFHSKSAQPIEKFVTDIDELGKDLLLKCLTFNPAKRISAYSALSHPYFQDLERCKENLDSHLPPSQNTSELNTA

CDK9 CCNK (human) = CDK9 CCNK (human) (UniProt O75909+P50750)
CSNK1E (human) = CSNK1E (human) (UniProt P49674)
EPHA2 (human) = EPHA2 (human) (UniProt P29317)
EPHA4 (human) = EPHA4 (human) (UniProt P54764)
EPHA8 (human) = EPHA8 (human) (UniProt P29322)
FES (human) = FES (human) (UniProt P07332)
FRK (human) = FRK (human) (UniProt P42685)
GSG2 (human) = GSG2 (human) (UniProt Q8TF76)
HCK (human) = HCK (human) (UniProt P08631)
IRAK4 (human) = IRAK4 (human) (UniProt Q9NWZ3)
LRRK2 (human) = LRRK2 (human) (UniProt Q5S007)
LYN (human) = LYN (human) (UniProt P07948)
MAP4K2 (human) = MAP4K2 (human) (UniProt Q12851)
Sequence of MAP4K2 (human) (Q12851 whole entry, looked up): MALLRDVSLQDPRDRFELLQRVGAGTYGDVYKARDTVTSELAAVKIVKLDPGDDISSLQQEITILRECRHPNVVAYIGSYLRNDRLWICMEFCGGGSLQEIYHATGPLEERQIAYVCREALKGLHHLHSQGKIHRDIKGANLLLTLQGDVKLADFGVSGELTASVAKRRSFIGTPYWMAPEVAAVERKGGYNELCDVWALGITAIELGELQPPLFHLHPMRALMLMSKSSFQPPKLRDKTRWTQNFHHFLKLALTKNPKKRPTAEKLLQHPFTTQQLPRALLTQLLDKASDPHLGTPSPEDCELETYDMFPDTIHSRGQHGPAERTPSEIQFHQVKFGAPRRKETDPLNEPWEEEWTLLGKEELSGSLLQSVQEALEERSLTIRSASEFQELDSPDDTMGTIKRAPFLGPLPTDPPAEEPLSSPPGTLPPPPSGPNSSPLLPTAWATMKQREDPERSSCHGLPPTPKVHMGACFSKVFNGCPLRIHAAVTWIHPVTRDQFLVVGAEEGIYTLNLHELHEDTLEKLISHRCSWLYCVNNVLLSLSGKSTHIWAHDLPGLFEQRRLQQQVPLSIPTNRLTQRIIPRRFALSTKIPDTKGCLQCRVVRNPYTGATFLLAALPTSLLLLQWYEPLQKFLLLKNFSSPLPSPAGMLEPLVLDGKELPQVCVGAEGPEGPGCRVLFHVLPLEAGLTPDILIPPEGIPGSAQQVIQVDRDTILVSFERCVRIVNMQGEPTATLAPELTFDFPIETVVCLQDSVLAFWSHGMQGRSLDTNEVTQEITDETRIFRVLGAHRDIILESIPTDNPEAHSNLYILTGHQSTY

MLTK (human) = MLTK (human) (UniProt Q9NYL2)
MST4 (human) = MST4 (human) (UniProt Q9P289)
NTRK3 (human) = NTRK3 (human) (UniProt Q16288)
PAK4 (human) = PAK4 (human) (UniProt O96013)
PIM1 (human) = PIM1 (human) (UniProt P11309)
PRKCG (human) = PRKCG (human) (UniProt P05129)
PRKCI (human) = PRKCI (human) (UniProt P41743)
PRKG2 (human) = PRKG2 (human) (UniProt Q13237)
Sequence of PRKG2 (human) (Q13237 whole entry, looked up): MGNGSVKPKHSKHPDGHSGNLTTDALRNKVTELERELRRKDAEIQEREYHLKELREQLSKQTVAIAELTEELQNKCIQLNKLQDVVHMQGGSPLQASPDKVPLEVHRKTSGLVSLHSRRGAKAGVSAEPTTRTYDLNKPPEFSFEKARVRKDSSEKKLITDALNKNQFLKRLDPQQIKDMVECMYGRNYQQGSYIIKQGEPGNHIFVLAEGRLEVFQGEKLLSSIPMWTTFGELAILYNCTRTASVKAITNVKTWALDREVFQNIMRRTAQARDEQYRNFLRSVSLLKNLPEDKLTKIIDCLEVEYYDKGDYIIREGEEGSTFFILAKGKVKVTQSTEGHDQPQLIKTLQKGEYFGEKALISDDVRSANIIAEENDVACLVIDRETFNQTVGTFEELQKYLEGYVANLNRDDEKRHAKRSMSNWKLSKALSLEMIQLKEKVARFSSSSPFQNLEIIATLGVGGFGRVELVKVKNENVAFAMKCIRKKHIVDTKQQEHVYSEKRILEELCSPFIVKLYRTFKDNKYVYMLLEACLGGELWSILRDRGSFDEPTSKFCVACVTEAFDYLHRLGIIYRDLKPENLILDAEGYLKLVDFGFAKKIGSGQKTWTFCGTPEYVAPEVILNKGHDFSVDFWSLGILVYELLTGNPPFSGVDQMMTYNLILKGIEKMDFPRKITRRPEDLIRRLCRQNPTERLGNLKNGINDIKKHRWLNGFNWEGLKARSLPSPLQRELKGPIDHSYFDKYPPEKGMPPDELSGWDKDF

PTK2B (human) = PTK2B (human) (UniProt Q14289)
RPS6KA3 KD1 KD2 (human) = RPS6KA3 KD1 KD2 (human) (UniProt P51812)
Sequence of RPS6KA3 KD1 KD2 (human) (P51812 whole entry, looked up): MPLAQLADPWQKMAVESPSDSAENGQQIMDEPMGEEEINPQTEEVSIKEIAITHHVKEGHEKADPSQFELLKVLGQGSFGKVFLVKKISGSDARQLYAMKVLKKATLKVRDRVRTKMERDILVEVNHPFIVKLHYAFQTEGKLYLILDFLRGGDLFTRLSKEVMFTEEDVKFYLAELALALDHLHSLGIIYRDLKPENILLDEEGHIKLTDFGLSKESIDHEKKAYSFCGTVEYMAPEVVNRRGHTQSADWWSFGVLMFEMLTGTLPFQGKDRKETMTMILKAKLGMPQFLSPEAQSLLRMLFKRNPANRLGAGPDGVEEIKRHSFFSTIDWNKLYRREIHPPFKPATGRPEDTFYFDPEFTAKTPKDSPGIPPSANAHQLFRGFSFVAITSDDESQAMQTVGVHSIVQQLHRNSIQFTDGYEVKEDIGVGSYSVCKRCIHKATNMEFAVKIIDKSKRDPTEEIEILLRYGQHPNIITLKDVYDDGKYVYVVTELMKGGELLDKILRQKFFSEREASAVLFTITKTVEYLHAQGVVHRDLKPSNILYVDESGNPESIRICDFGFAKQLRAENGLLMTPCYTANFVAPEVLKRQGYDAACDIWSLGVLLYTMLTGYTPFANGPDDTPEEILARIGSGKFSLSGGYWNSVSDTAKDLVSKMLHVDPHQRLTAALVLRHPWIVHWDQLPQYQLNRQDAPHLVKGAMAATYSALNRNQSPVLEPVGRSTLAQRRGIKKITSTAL

RPS6KA6 KD1 KD2 (human) = RPS6KA6 KD1 KD2 (human) (UniProt Q9UK32)
SRMS (human) = SRMS (human) (UniProt Q9H3Y6)
SRPK1 (human) = SRPK1 (human) (UniProt Q96SB4)
SRPK2 (human) = SRPK2 (human) (UniProt P78362)
SRPK3 (human) = SRPK3 (human) (UniProt Q9UPE1)
STK11 (human) = STK11 (human) (UniProt Q15831)
STK39 (human) = STK39 (human) (UniProt Q9UEW8)
STK4 (human) = STK4 (human) (UniProt Q13043)
Sequence of STK4 (human) (Q13043 whole entry, looked up): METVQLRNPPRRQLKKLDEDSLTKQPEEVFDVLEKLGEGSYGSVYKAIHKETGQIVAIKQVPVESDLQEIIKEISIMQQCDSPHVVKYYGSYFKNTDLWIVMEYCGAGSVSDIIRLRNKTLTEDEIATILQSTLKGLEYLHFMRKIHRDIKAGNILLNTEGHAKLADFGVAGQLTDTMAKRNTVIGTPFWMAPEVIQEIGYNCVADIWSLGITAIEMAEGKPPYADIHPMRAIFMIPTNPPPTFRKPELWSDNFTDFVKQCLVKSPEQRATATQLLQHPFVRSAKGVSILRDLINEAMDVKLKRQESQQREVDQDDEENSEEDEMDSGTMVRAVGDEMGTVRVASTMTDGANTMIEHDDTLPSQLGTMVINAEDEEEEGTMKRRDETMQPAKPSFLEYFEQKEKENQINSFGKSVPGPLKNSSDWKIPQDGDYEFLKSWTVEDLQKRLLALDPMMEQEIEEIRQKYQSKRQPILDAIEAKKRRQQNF

TXK (human) = TXK (human) (UniProt P42681)
ULK3 (human) = ULK3 (human) (UniProt Q6PHR2)

Sequence of ADRBK1 (human) (P25098 whole entry, looked up): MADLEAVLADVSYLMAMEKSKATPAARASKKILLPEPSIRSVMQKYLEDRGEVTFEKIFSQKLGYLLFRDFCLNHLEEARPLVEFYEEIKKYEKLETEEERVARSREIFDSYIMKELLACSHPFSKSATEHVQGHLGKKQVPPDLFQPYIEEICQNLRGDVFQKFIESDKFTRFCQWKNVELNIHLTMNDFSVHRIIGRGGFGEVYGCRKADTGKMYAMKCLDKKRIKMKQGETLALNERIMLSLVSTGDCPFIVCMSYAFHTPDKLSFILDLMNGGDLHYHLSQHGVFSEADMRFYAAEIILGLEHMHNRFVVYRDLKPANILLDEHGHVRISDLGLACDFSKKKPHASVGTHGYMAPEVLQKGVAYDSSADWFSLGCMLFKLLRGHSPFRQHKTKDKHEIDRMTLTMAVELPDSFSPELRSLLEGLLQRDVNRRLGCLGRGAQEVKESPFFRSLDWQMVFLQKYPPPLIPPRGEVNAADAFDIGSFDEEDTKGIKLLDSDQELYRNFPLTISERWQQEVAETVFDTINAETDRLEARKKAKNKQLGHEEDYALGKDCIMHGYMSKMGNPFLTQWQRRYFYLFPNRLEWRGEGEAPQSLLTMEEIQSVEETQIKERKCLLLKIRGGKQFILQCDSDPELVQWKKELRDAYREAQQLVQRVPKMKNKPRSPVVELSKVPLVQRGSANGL

Structure (SMILES): CNc1cc2c(Nc3cccc(Br)c3)ncnc2cn1
- residual activity (ADRBK1 (human)): 97%
- residual activity (AKT1 (human)): 98.8%
- residual activity (BTK (human)): 94.7%
- residual activity (CAMKK2 (human)): 80%
- residual activity (CDK1 CCNB1 (human)): 104%
- residual activity (CDK2 CCNA2 (human)): 106%
- residual activity (CDK4 CCND1 (human)): 104%
- residual activity (CDK6 CCND1 (human)): 82.2%
- residual activity (CDK9 CCNK (human)): 105%
- residual activity (CSNK1E (human)): 84.8%
- residual activity (EPHA2 (human)): 95.3%
- residual activity (EPHA4 (human)): 94.2%
- residual activity (EPHA8 (human)): 87.9%
- residual activity (FES (human)): 96.9%
- residual activity (FRK (human)): 91.2%
- residual activity (GSG2 (human)): 91.8%
- residual activity (HCK (human)): 84.5%
- residual activity (IRAK4 (human)): 82.6%
- residual activity (LRRK2 (human)): 67%
- residual activity (LYN (human)): 63.9% and 81.9%
- residual activity (MAP4K2 (human)): 74.8%
- residual activity (MLTK (human)): 82.3%
- residual activity (MST4 (human)): 109%
- residual activity (NTRK3 (human)): 72.7%
- residual activity (PAK4 (human)): 93%
- residual activity (PIM1 (human)): 66.2%
- residual activity (PRKCG (human)): 105%
- residual activity (PRKCI (human)): 96.4%
- residual activity (PRKG2 (human)): 102%
- residual activity (PTK2B (human)): 94.5%
- residual activity (RPS6KA3 KD1 KD2 (human)): 86.6%
- residual activity (RPS6KA6 KD1 KD2 (human)): 81.8%
- residual activity (SRMS (human)): 100%
- residual activity (SRPK1 (human)): 90.7%
- residual activity (SRPK2 (human)): 89.4%
- residual activity (SRPK3 (human)): 97.1%
- residual activity (STK11 (human)): 98.3%
- residual activity (STK39 (human)): 94%
- residual activity (STK4 (human)): 95.4%
- residual activity (TXK (human)): 79.9%
- residual activity (ULK3 (human)): 95.8%

Structure (SMILES): Oc1cccc(-c2nc(N3CCOCC3)c3oc4ncccc4c3n2)c1
- residual activity (ADRBK1 (human)): 107%
- residual activity (AKT1 (human)): 95.3%
- residual activity (BTK (human)): 95.2%
- residual activity (CAMKK2 (human)): 79.8%
- residual activity (CDK1 CCNB1 (human)): 108%
- residual activity (CDK2 CCNA2 (human)): 104%
- residual activity (CDK4 CCND1 (human)): 102%
- residual activity (CDK6 CCND1 (human)): 95.6%
- residual activity (CDK9 CCNK (human)): 96%
- residual activity (CSNK1E (human)): 87.1%
- residual activity (EPHA2 (human)): 99.9%
- residual activity (EPHA4 (human)): 96.4%
- residual activity (EPHA8 (human)): 93.9%
- residual activity (FES (human)): 98.8%
- residual activity (FRK (human)): 91.3%
- residual activity (GSG2 (human)): 90.3%
- residual activity (HCK (human)): 91.9%
- residual activity (IRAK4 (human)): 104%
- residual activity (LRRK2 (human)): 101%
- residual activity (LYN (human)): 102% and 98.3%
- residual activity (MAP4K2 (human)): 93%
- residual activity (MLTK (human)): 96.2%
- residual activity (MST4 (human)): 98.6%
- residual activity (NTRK3 (human)): 91.1%
- residual activity (PAK4 (human)): 90.7%
- residual activity (PIM1 (human)): 91.2%
- residual activity (PRKCG (human)): 102%
- residual activity (PRKCI (human)): 94.9%
- residual activity (PRKG2 (human)): 89.2%
- residual activity (PTK2B (human)): 103%
- residual activity (RPS6KA3 KD1 KD2 (human)): 101%
- residual activity (RPS6KA6 KD1 KD2 (human)): 98.2%
- residual activity (SRMS (human)): 96.2%
- residual activity (SRPK1 (human)): 105%
- residual activity (SRPK2 (human)): 97.3%
- residual activity (SRPK3 (human)): 95%
- residual activity (STK11 (human)): 86.4%
- residual activity (STK39 (human)): 105%
- residual activity (STK4 (human)): 93.3%
- residual activity (TXK (human)): 94.8%
- residual activity (ULK3 (human)): 99.7%

- residual activity (ADRBK1 (human)): 105%
- residual activity (AKT1 (human)): 98.8%
- residual activity (BTK (human)): 93.1%
- residual activity (CAMKK2 (human)): 75.2%
- residual activity (CDK1 CCNB1 (human)): 101%
- residual activity (CDK2 CCNA2 (human)): 103%
- residual activity (CDK4 CCND1 (human)): 88.5%
- residual activity (CDK6 CCND1 (human)): 84.8%
- residual activity (CDK9 CCNK (human)): 90.2%
- residual activity (CSNK1E (human)): 76.1%
- residual activity (EPHA2 (human)): 97.8%
- residual activity (EPHA4 (human)): 80.7%
- residual activity (EPHA8 (human)): 91.7%
- residual activity (FES (human)): 96%
- residual activity (FRK (human)): 95.4%
- residual activity (GSG2 (human)): 102%
- residual activity (HCK (human)): 63.5%
- residual activity (IRAK4 (human)): 65.5%
- residual activity (LRRK2 (human)): 6.63%
- residual activity (LYN (human)): 39.1% and 53.3%
- residual activity (MAP4K2 (human)): 53.5%
- residual activity (MLTK (human)): 97.4%
- residual activity (MST4 (human)): 63.5%
- residual activity (NTRK3 (human)): 5.93%
- residual activity (PAK4 (human)): 101%
- residual activity (PIM1 (human)): 103%
- residual activity (PRKCG (human)): 94.8%
- residual activity (PRKCI (human)): 98.7%
- residual activity (PRKG2 (human)): 104%
- residual activity (PTK2B (human)): 57.7%
- residual activity (RPS6KA3 KD1 KD2 (human)): 76.8%
- residual activity (RPS6KA6 KD1 KD2 (human)): 67.8%
- residual activity (SRMS (human)): 104%
- residual activity (SRPK1 (human)): 77.3%
- residual activity (SRPK2 (human)): 60.5%
- residual activity (SRPK3 (human)): 84.8%
- residual activity (STK11 (human)): 89.9%
- residual activity (STK39 (human)): 84.7%
- residual activity (STK4 (human)): 49.1%
- residual activity (TXK (human)): 102%
- residual activity (ULK3 (human)): 55.3%
Structure (SMILES): Cc1[nH]c(/C=C2\C(=O)Nc3ccc(S(=O)(=O)N(C)c4cccc(Cl)c4)cc32)c(C)c1C(=O)N1CCN(C)CC1
